The series in a line: Body weight gain, organ weight and visceral fat after 14 days oral dosing. Format: in vivo, male Sprague Dawley rats. As to the method: The effect of compounds of the present invention on weight loss and fat stores in animals was examined as follows. Fifty male Sprague Dawley rats (6-7 weeks old) obtained from Simonsen, Inc. were dosed with 0.5% CMC (Sigma-Aldrich) or compound B at 20, 60, 100, or 200 mg/kg body weight by oral gavage once daily for 14 consecutive days. Animals were monitored for changes in body weight and signs of overt toxicity and mortality. On day 15, following an overnight fast with water available ad libitum, animals were anesthetized with isoflurane. One whole blood sample of approximately 1 ml was collected into tubes containing EDTA for hematological analysis, and a second sample of approximately 1 ml was collected into a tube with no anticoagulant for serum chemistry analysis. Blood sample analyses were performed by IDEXX (West Sacramento, Calif.). Following blood collection, the diaphragm was incised and the animals were sacrificed. Macroscopic observations were recorded for each animal and the liver, kidneys, heart, spleen, lungs, stomach, small intestines, and large intestines were collected for histological assessment.

Turning to `O=C(O)CNC(=O)c1nc(Cl)c2ccccc2c1O` [compound B, [(1-Chloro4-hydroxy-isoquinoline-3-carbonyl)-amino]-acetic acid], the “relative heart weight, expressed as a fraction of the total body weight, compared to control” value (rats, 100 mg/kg, p=0.036, one-way ANOVA/Tukey's test) is listed as “significantly increased”. Also, the weight gain entry (rats, 20, 60, 100, or 200 mg/kg oral gavage once daily for 14 days, FIG. 7A) is “dose-dependent retardation”. The visceral fat entry (rats, 20 to 200 mg/kg oral gavage 14 days, FIG. 8) was “dose-dependent reduction”. Besides, where the note is “rats, higher doses of compound, FIG. 8 bottom panel”, the “visceral fat pads at higher doses” value is “complete absence of fat pads”. For the same molecule, the “absolute heart weight compared to control” value (rats, oral gavage 14 days, FIG. 7B) is listed as “no statistically significant difference”.

Source of the values: US8124582B2, “Treatment of diabetes” (FibroGen, Inc., priority 2002, dated 2012).
